Test results from article PMC6247689, “Determination of the volatile and polyphenol constituents and the antimicrobial, antioxidant, and tyrosinase inhibitory activities of the bioactive compounds from the by-product of Rosa rugosa Thunb. var. plena Regal tea” (BMC Complementary and Alternative Medicine, 2018).
In brackets after ≈: the same amount, converted by molar mass. Blank lines part the entries; values can stand above or below the molecule they belong to.

How the values were obtained:
[1] = DPPH radical scavenging activity; settings: 30 min in the dark, 517 nm; positive control = ascorbic acid
Method: The antioxidant activity of RFCS and the standards were evaluated by DPPH radical scavenging activity using a slightly modified version of a previously reported method. […] Aliquots (100 μL) of the supernatants were transferred into a 96-well microplate, and the absorbance of each was recorded at 517 nm using a Spectramax Plus384 UV-Vis spectrophotometer (Molecular Devices, Sunnyvale, California, USA). […] The IC50 values, which represent the concentrations of rose samples and standard substance at which 50% of the DPPH radical was inhibited, were determined. The tests were performed in triplicate, and the percentage of DPPH scavenging was calculated using the following equation. Inhibition%=H0-H/H0×100 H:Absorbance of RFCS and the standards;H0:Absorbance of the blank

[2] = tested on: candida albicans (ATCC 10231); experiment: MIC and MFC, broth microdilution; format: cell-based; settings: Candida albicans, ATCC10231, C. albicans; for MIC: 37 °C, 24 h, read-out: MIC; for MFC: read-out: MFC
Method: (§1) The antimicrobial activity was measured by the method described by Xue. All standard strains were obtained from the Guangdong Microbiology Culture Center (Guangzhou, China). Listeria ivanovii (ATCC 19119) was cultured in BHI, Salmonella enteritidis enteritidis (ATCC 14028) Staphylococcus aureus (ATCC 25923) and Escherichia coli (ATCC 25922) were cultured in nutrient agar (NA) for 24 h and at 37 °C. candida albicans (ATCC 10231) was cultured in PHB at 37 °C for 24 h. Propionibacterium acnes (ATCC 6919) and Fusobacterium nucleatum (ATCC 10953) were cultured in CDC agar at 37 °C for 48 h in a YQX-II anaerobic incubator (Shanghai, China). The final cell counts in l mL of broth were approximately 10^6 colony-forming units (CFU/mL). A 10 mg/mL solution of miconazole nitrate and hydrochloride tetracycline in water was used as a positive control against fungi and bacteria, respectly.
(§2) The MIC and MBC or MFC values were determined as described previously by Xue. Briefly, 100 μL dilutions (approximately 100,000 CFU/mL) of Staphylococcus aureus, Escherichia coli, Salmonella enteritidis enteritidis, Fusobacterium nucleatum, and Candida albicans in nutrient broth and Listeria ivanovii and Propionibacterium acnes in GMA broth were inoculated into microtiter plates. Then, 100 μL aliquots of the solutions of the test compound were added after a two-fold serial dilution with nutrient broth (from 2 mg/mL to 3 μg/mL). Broths with 5% (v/v) DMSO were used as controls. The petri dishes were incubated at 37 °C for 24 h with the exception of Propionibacterium acnes and Fusobacterium nucleatum, which were incubated at 37 °C for 48 h. The MIC was recorded as the lowest concentration of sample showing no detectable growth. To determine the MBC or MFC values for no bacterial or fungus growth, 10 μL of sub-inhibitory concentrations of the test compounds were incubated on CDC or GMA agar plates for 24 or 48 h. Every determination was carried out in triplicate.

[3] = tested on: Salmonella enteritidis enteritidis (ATCC 14028); experiment: MIC and MBC, broth microdilution; format: cell-based; settings: Salmonella enterica, S. enteritidis enteritidis; for MIC: 37 °C, 24 h, read-out: MIC; for MBC: read-out: MBC
Method: as §1, §2

[4] = tested on: Listeria ivanovii (ATCC 19119); experiment: MIC and MBC, broth microdilution; format: cell-based; settings: Listeria ivanovii, ATCC19119, L. ivanovii; for MIC: 37 °C, 24 h, read-out: MIC; for MBC: read-out: MBC
Method: as §1, §2

[5] = tested on: Fusobacterium nucleatum (ATCC 10953); experiment: MIC and MBC, broth microdilution; format: cell-based; settings: Fusobacterium nucleatum, ATCC10953, F. nucleatum; for MIC: anaerobic, 37 °C, 48 h, read-out: MIC; for MBC: read-out: MBC
Method: as §1, §2

[6] = tested on: Staphylococcus aureus (ATCC 25923); experiment: MIC and MBC, broth microdilution; format: cell-based; settings: Staphylococcus aureus, ATCC25923, S. aureus; for MIC: 37 °C, 24 h, read-out: MIC; for MBC: read-out: MBC
Method: as §1, §2

[7] = tested on: Propionibacterium acnes (ATCC 6919); experiment: MIC and MBC, broth microdilution; format: cell-based; settings: Cutibacterium acnes, ATCC6919, P. acnes; for MIC: anaerobic, 37 °C, 48 h, read-out: MIC; for MBC: read-out: MBC
Method: as §1, §2

[8] = tested on: Escherichia coli (ATCC 25922); experiment: MIC and MBC, broth microdilution; format: cell-based; settings: Escherichia coli, ATCC25922, E. coli; for MIC: 37 °C, 24 h, read-out: MIC; for MBC: read-out: MBC
Method: as §1, §2

[9] = biological target: mushroom tyrosinase; experiment: Tyrosinase inhibitory activity (spectrophotometric, DOPA substrate); format: biochemical; settings: pH 6.8, 37 °C, 15 min, positive control = kojic acid
Method: The reaction mixture was vortexed and maintained at 37 °C for 15 min, and then the absorption maximum of dopachrome (set at 479 nm) was measured using a microplate reader (Molecular Devices, Sunnyvale, California, USA). The tests were performed in triplicate, and the value of tyrosinase inhibition activity was calculated as described above.

[10] = ABTS radical scavenging; settings: 30 °C, 30 min; positive control = Trolox
Method: The ABTS assay of RFCS was performed according to a modified version of a previously reported method. Briefly, the stock solutions were generated by mixing equal quantities of 7.4 mM ABTS^●+ solution and 2.6 mM potassium persulfate solution, and the mixture was incubated at room temperature for 12 h in the dark. Then, the solution was equilibrated with 1 mL of ABTS^●+ solution with 50% ethanol serving as a positive control. The absorbance of the solution at 734 nm was 1.17 ± 0.02 units. […] The mixture was mixed vigorously and incubated at 30 °C for 30 min. The absorbance was then measured at […] using the spectrophotometer. […] Inhibition%=Absorbance of blank-Absorbance of sample/Absorbance of blank×100

- DPPH radical scavenging activity IC50 [1]: 0.695 ± 0.021 c μg/mL
- MIC [2]: 250 µg/mL (≈ 538 µM)
- MIC [3]: 250 µg/mL (≈ 538 µM)
- MIC [4]: 250 µg/mL (≈ 538 µM)
- MIC [5]: 250 µg/mL (≈ 538 µM)
- MIC [6]: 250 µg/mL (≈ 538 µM)
- MIC [7]: 250 µg/mL (≈ 538 µM)
- MIC [8]: 250 µg/mL (≈ 538 µM)
- Tyrosinase inhibition IC50 [9]: 0.762 ± 0.018 µg/mL
- Tyrosinase inhibition IC50 ([9]; listed as hyperoside): < 1 µg/mL
- ABTS radical scavenging activity IC50 [10]: 0.526 ± 0.014 c μg/mL
Structure (SMILES): O=c1c(O[C@@H]2O[C@H](CO)[C@H](O)[C@H](O)[C@H]2O)c(-c2ccc(O)c(O)c2)oc2cc(O)cc(O)c12 [Hyperoside]
- MFC [2]: 1000 µg/mL (≈ 2150 µM)
- MBC [3]: 500 µg/mL (≈ 1080 µM)
- MBC [4]: 500 µg/mL (≈ 1080 µM)
- MBC [5]: 500 µg/mL (≈ 1080 µM)
- MBC [6]: 1000 µg/mL (≈ 2150 µM)
- MBC [7]: 1000 µg/mL (≈ 2150 µM)
- MBC [8]: 1000 µg/mL (≈ 2150 µM)

- DPPH radical scavenging activity IC50 [1]: 0.507 ± 0.015 c μg/mL
- MIC [4]: 500 µg/mL (≈ 1750 µM)
- MIC [5]: 125 µg/mL (≈ 437 µM)
- MIC [6]: 500 µg/mL (≈ 1750 µM)
- Tyrosinase inhibition IC50 [9]: 0.613 ± 0.016 µg/mL
- ABTS radical scavenging activity IC50 [10]: 0.436 ± 0.026 c μg/mL
Structure (SMILES): O=c1cc(-c2ccc(O)c(O)c2)oc2cc(O)cc(O)c12 [Luteolin]
- MFC [2]: 500 µg/mL (≈ 1750 µM)
- MBC [4]: 1000 µg/mL (≈ 3490 µM)
- MBC [5]: 500 µg/mL (≈ 1750 µM)
- MBC [6]: > 1000 µg/mL
- MBC [7]: 500 µg/mL (≈ 1750 µM)
- MBC [8]: 1000 µg/mL (≈ 3490 µM)

- MIC [2]: 8 µg/mL
Structure (SMILES): Clc1ccc(COC(Cn2ccnc2)c2ccc(Cl)cc2Cl)c(Cl)c1 (stereo not drawn) [Miconazole Nitrate]
- MBC [8]: 16 µg/mL

Second part, the molecule before the results:

Structure (SMILES): CC(C)=CCCC(C)CCO (stereo not drawn) [Citronellol]
- DPPH radical scavenging activity IC50 [1]: > 10000a μg/mL
- MIC [2]: 250 µg/mL (≈ 1600 µM)
- MFC [2]: 500 µg/mL (≈ 3200 µM)
- MIC [3]: 250 µg/mL (≈ 1600 µM)
- MBC [3]: 1000 µg/mL (≈ 6400 µM)
- MIC [4]: 250 µg/mL (≈ 1600 µM)
- MBC [4]: 500 µg/mL (≈ 3200 µM)
- MIC [5]: 250 µg/mL (≈ 1600 µM)
- MBC [5]: 1000 µg/mL (≈ 6400 µM)
- MIC [6]: 125 µg/mL (≈ 800 µM)
- MBC [6]: 500 µg/mL (≈ 3200 µM)
- MIC [7]: 125 µg/mL (≈ 800 µM)
- MBC [7]: 500 µg/mL (≈ 3200 µM)
- MIC [8]: 250 µg/mL (≈ 1600 µM)
- MBC [8]: 500 µg/mL (≈ 3200 µM)
- Tyrosinase inhibition IC50 [9]: 825 ± 31 a μg/mL
- ABTS radical scavenging activity IC50 [10]: > 10,000 a μg/mL

Structure (SMILES): CC(C)=CCC[C@](C)(O)[C@@H]1CC=C(C)CC1 [α-bisabolol]
- DPPH radical scavenging activity IC50 [1]: > 10,000 a μg/mL
- MIC [2]: 1000 µg/mL (≈ 4500 µM)
- MFC [2]: > 1000 µg/mL
- MIC [3]: 500 µg/mL (≈ 2250 µM)
- MBC [3]: > 1000 µg/mL
- MIC [4]: 8 µg/mL (≈ 36 µM)
- MBC [4]: 32 µg/mL (≈ 144 µM)
- MIC [5]: 8 µg/mL (≈ 36 µM)
- MBC [5]: 32 µg/mL (≈ 144 µM)
- MIC [6]: 250 µg/mL (≈ 1120 µM)
- MBC [6]: 1000 µg/mL (≈ 4500 µM)
- MIC [7]: 125 µg/mL (≈ 562 µM)
- MBC [7]: 500 µg/mL (≈ 2250 µM)
- MIC [8]: 500 µg/mL (≈ 2250 µM)
- MBC [8]: 1000 µg/mL (≈ 4500 µM)
- Tyrosinase inhibition IC50 [9]: 635 ± 22 a μg/mL
- ABTS radical scavenging activity IC50 [10]: > 10,000 a μg/mL
